# Measurements: US20060069132A1, “Azolecarboxamide herbicides” (priority 2004, published 2006)
# Tests used:
# Test in all cases: Test C flooded paddy test
# ducksalad = assay type: in vivo, Heteranthera limosa; conditions: for Plant response rating, Ducksalad: 500 g ai/ha, visual rating after 12 to 14 days
# barnyardgrass = assay type: in vivo, Echinochloa crus-galli; conditions: for Plant response rating, Barnyardgrass: 500 g ai/ha, visual rating after 12 to 14 days
# Summary of the method: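 Postemergence sprays applied to plants 2 to 18 cm tall (1- to 4-leaf stage); paddy species grown to 2-leaf stage under flooding. After 12 to 14 days in greenhouse, visual rating versus untreated controls on 0–100 scale (0 no effect, 100 complete control).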
# [1] = system: smallflower umbrella sedge; assay type: in vivo, Cyperus difformis; conditions: for Plant response rating, Sedge, Umbrella: 500 g ai/ha, visual rating after 12 to 14 days
# [2] = 125 g ai/ha, scale 0 to 100 (0 no effect, 100 complete control)
# [3] = 250 g ai/ha, scale of 0 to 100, 0 is no effect, 100 is complete control
# [4] = scale 0 to 100 (0 no effect, 100 complete control)
# [5] = 62 g ai/ha, scale 0 to 100 (0 no effect, 100 complete control)
SMILES,"Ducksalad plant response rating (ducksalad; 62 g ai/ha, scale 0 to 100)",Ducksalad plant response rating (ducksalad; [2]),Ducksalad plant response rating (ducksalad; [3]),"Plant response rating, Ducksalad (ducksalad; [4])",Barnyardgrass plant response rating (barnyardgrass; [5]),Barnyardgrass plant response rating (barnyardgrass; [2]),Barnyardgrass plant response rating (barnyardgrass; [3]),"Plant response rating, Barnyardgrass (barnyardgrass; [4])","Sedge, Umbrella plant response rating ([1]; 62 g ai/ha, scale 0 to 100)","Sedge, Umbrella plant response rating [1, 2]","Sedge, Umbrella plant response rating [1, 3]","Plant response rating, Sedge, Umbrella [1, 4]",Ducksalad plant response rating (ducksalad; [5]),"Sedge, Umbrella plant response rating [1, 5]"
CCn1nc(C(C)(C)C)cc1C(=O)Nc1cccc(OS(=O)(=O)CC)c1 [Compound 408],65,85,95,95,20,45,60,70,60,80,85,85,–,–
CCc1nc(C(C)(C)C)sc1C(=O)Nc1cccc(C(=O)NC(C)(C)C)n1 [Compound 216],–,20,30,40,0,0,0,30,–,30,30,50,0,20
